Article PMC12526720, “Hydralazine inhibits cysteamine dioxygenase to treat preeclampsia and senesce glioblastoma” (Science Advances, 2024)
Where a name gives a salt, the structure may show the parent alone.

Assays:
[1] = molecular target: T1, 2-aminoethanethiol dioxygenase (ADO) (Homo sapiens, UniProt Q96SZ5); test: O2 consumption (oxygen electrode) with purified Fe(II)•ADO, global fit; EPR of Co(II)•ADO also supports binding; assay type: biochemical
T1 construct: WT hADO (NP_116193.2), His6 tag cleaved with TEV
T1 sequence (Q96SZ5 1-270): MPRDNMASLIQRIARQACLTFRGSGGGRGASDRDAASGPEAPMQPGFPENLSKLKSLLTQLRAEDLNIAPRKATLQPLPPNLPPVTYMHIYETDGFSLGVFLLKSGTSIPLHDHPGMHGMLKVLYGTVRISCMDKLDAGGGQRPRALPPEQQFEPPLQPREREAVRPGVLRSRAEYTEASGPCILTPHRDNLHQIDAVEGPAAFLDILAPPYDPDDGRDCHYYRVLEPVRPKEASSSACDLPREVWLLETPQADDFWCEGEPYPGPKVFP

[2] = molecular target: T2, mouse ADO (Mus musculus, UniProt Q6PDY2); test: quantitative chemoproteomics in RAW […] and Neuro 2a cells, and in mouse heart and brain; assay type: cell-based
T2 construct: endogenous
T2 sequence (Q6PDY2 1-256): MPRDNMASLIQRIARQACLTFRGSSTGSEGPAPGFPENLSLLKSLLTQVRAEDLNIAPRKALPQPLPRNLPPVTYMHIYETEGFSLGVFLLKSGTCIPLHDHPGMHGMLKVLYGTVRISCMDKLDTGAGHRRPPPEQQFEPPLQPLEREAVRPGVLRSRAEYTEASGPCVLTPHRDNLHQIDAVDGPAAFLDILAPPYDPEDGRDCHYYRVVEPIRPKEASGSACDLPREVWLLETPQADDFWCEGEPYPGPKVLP

Row | SMILES | Ki [1] [nM] | quantitative chemoproteomics in RAW 264.7 and Neuro 2a cells, and in mouse heart [2]
1 | NNc1nncc2ccccc12 [HYZ, Hydralazine] | 2480 ± 420 | 
2 | C#CCOCc1ccc2c(NN)nncc2c1 [HYZyne, 1-hydrazineyl-6-((prop-2-yn-1-yloxy)methyl)phthalazine hydrochloride] |  | mouse ADO was also identified as a primary, high-reactivity, and high-stoichiometry target of HYZyne in both mouse cell types
